# Laboratory results published in patent publication US20040225019A1, “Methods of preventing or treating motion sickness” (priority 2003, published 2004).
# Entries after “also recorded” stand apart in the source; their conditions may differ.
# How the values were obtained:
# [1] = tested on: motion sickness; assay: Off-vertical rotation chair motion sickness test; type: in vivo, human; settings: for Mean Time (chair time): ride 3 h after drug, placebo 7.2; for Mean Time (chair time) / Mean Motion Sickness Severity Score: n = 18; for Mean Motion Sickness Severity Score: end of chair ride, placebo 18.2
# Source text: Motion sickness was simulated by rotation in a tilted chair, also known as off-vertical rotation (Knox, et al. (1994) Laryngoscope 104(8 Pt 1):935-9; Woodard, et al. (1993) Aviat. Space Environ. Med. 64(5):363-6; Mowrey and Clayson (1982) Lancet 1(8273):655-7; Graybiel and Miller (1970) Aero. Med. 41(4):407-10). Off-vertical rotation produces motion sickness symptoms in more than 90% of subjects tested and has a high test-retest reliability. No provocative head motions are required which minimizes subject fatigue and training. For each run, the chair was tilted to 15 degrees off vertical, and accelerated at 5 degrees/sec^2 to 17.5 revolutions per minute. […] The subject was restrained with a seat belt and shoulder harness. The subject's head was also secured to the headrest with a strap to prevent head movements. Opaque goggles were placed over the subject's eyes.
# The degree of motion sickness was assessed in three different ways. For the first method, the subjects were instructed how to use a well-known ratio scaling method (Bock and Oman (1982) Aviat. Space Environ. Med. 53(8):773-7) and were given a familiarization run in the chair to experience the motion sickness symptoms. The subjects were instructed to rate the peak overall discomfort they experienced in the familiarization ride as a “10” and to remember this level. They were instructed to rate all other levels of discomfort relative to this level. For example, discomfort which was half as severe would be rated as a “5”. This method is similar other well-known methods (see, e.g., Stott, et al. (1989) Br. J. Clin. Pharma. 27(2):147-57).
# The second method was symptom recording. Prior to the familiarization run the subjects were instructed about the different symptoms that might occur (drowsiness, epigastric awareness, and the like). The subjects were asked about these symptoms each minute during the rotation and logged on a scoring sheet (Miller and Graybiel (1970) Aero. Med. 41(4):407-10), which was a variant of the Pensacola Diagnostic Rating Scale. The symptoms were assigned points and from these points, five levels of severity were determined (frank sickness, severe malaise, moderate malaise A, moderate malaise B, slight malaise).
# The third method used to assess motion sickness was to record the total number of minutes the subject rides in the chair before stopping (Woodard, et al. (1993) supra; Mowrey and Clayson (1982) supra).
# The studies employed a double-blind, placebo controlled, crossover design. […] The placebo was a single lactose capsule. […] The medications were labeled only with the subject's name, identification number and sequence of administration (i.e., Run 1, Run 2, Run 3). […] Both the research team and subjects were unaware of the order of administration.
# Prior to the ride, subjects received a briefing on the symptoms they might experience, how to report those symptoms and instructions on when to stop the test. After the familiarization ride the subjects were instructed to remember their peak overall discomfort as a “10” and to rate all future symptoms relative to that baseline.
# The subjects rode in the chair once for each treatment (low dose, high dose, and placebo) with at least one week between rides. A one week interval between rides is sufficient to prevent habituation to the rotating stimulus (Kohl (1987) Aviat. Space Environ. Med. 58(2):125-31; Stott, et al (1989) supra).
# Test medications were taken two hours after finishing breakfast. […] On the study day, the subjects came to the lab, performed the cognitive testing battery and were observed taking the test medication. The time of drug ingestion was documented and the subjects returned three hours after taking the medication to complete the cognitive testing battery and ride in the chair. Prior to entering the chair, subjects received a standardized test briefing. Every minute during the testing, subjects were quizzed for motion sickness symptoms and asked to rate their own symptoms on a ratio scale. […]
# [2] = Questionnaire about side effects after chair ride
# [3] = Cognitive assessment battery before and after drug and chair ride; type: in vivo, human; settings: for Mean Reaction Time: n = 15
# Source text: Test medications were taken two hours after finishing breakfast. […] On the study day, the subjects came to the lab, performed the cognitive testing battery and were observed taking the test medication. The time of drug ingestion was documented and the subjects returned three hours after taking the medication to complete the cognitive testing battery and ride in the chair. Prior to entering the chair, subjects received a standardized test briefing. Every minute during the testing, subjects were quizzed for motion sickness symptoms and asked to rate their own symptoms on a ratio scale. Testing continued until either 20 minutes elapsed, the subject requested testing stop, or severe nausea or vomiting was experienced (i.e., the subject reached a subjective 10 on their scale). Blood pressure, respiratory rate and pulse were measured before and after the chair ride using a Critikon DINAMAP® 1846-SX device.
# A standard cognitive assessment battery (Dinges, et al. (1997) Sleep 20(4):267-7; Neri, et al. (1995) Aviat. Space Environ. Med 66(4):313-9; Richardson, et al. (1996) Sleep 19(9):718-26) used in studies of sleep deprivation (Jewett, et al. (1999) Sleep 22(2):171-9) was used which included both objective and subjective measures of performance and wakefulness. The overall battery takes 20 minutes to administer and has been used successfully on the Neurolab space shuttle mission to assess how sleep loss affected crewmembers.
# The cognitive tests were performed three times for each chair ride. The first test served as a baseline, the second test was administered at the peak of drug effect and the last test was after the chair ride. In this design, the results of the second test reflect changes due to drug effect, while the results from the third test reflect a combination of drug effect and motion sickness effects.
smiles,measurement,setting,value
CN(C)CCC(c1ccc(Cl)cc1)c1ccccn1 (racemic) [chlorpheniramine],Mean Time (chair time),[1]; High Dose 12 mg chlorpheniramine capsule,11.7 min
same,Mean Motion Sickness Severity Score,[1]; High Dose 12 mg,12.4
same,Motion sickness severity score at end of chair ride (significance),[1]; High dose 12 mg versus placebo (p=0.0004) and low dose (p=0.01),significantly less
same,Increase of mean chair time versus placebo,"[1]; High dose 12 mg, 7.2 to 11.7 minutes",63%
same,Effect on chair time versus placebo (significance),"[1]; High dose 12 mg, p=0.001",significantly increased chair time
same,Mean Time (chair time),[1]; Low Dose 4 mg chlorpheniramine capsule,10.2 min
same,Mean Motion Sickness Severity Score,[1]; Low Dose 4 mg,16.4
same,Subjects who increased chair time to the maximum (20 minutes),"[1]; of 18 subjects, rides stopped at 20 minutes",Three
same,Most commonly reported toxicities,"[2]; after chair rides, 18 subjects",drowsiness and dry mouth
same,Tendency to report a side effect with drug versus placebo,[2]; chi-square analysis,did not reach statistical significance
same,"Performance in objective tests of addition, tracking and memory",[3]; 4 mg and 12 mg doses,does not affect performance; also recorded: not significantly affected
same,Mean Reaction Time,"[3]; High Dose 12 mg, PostDrug",281.5 ms
same,Mean Reaction Time,"[3]; High Dose 12 mg, PostRide",298.4 ms
same,Mean Reaction Time,"[3]; High Dose 12 mg, PreDrug (baseline before drug)",265.1 ms
same,Karolinska sleepiness scores,"[3]; High dose 12 mg, after chair rides, p<0.0001",higher sleepiness scores
same,Reaction time (significance),"[3]; High dose 12 mg, after the chair rides, p=0.0002",significantly increased
same,Scores on the alert-sleepy mood scale,"[3]; High dose 12 mg, p<0.0001",significantly changed toward the sleepy portion of the scale
same,Scores on the clearheaded-groggy mood scale,"[3]; High dose 12 mg, p<0.0001",significantly changed toward the groggy portion of the scale
same,Mean Reaction Time,"[3]; Low Dose 4 mg, PostDrug",286.1 ms
same,Mean Reaction Time,"[3]; Low Dose 4 mg, PostRide",295.2 ms
same,Mean Reaction Time,"[3]; Low Dose 4 mg, PreDrug (baseline before drug)",271.2 ms
